Data on 28 compounds can be found in patent publication US20230399341A1, “7-PHENYL SUBSTITUTED 2-AMINOQUINAZOLINE INHIBITORS OF HPK1” (MERCK SHARP & DOHME LLC, priority 2020, published 2023).

The target of the assay is T1, Human HPK1, catalytic domain (Homo sapiens, UniProt Q92918).
T1 sequence (Q92918 1-346): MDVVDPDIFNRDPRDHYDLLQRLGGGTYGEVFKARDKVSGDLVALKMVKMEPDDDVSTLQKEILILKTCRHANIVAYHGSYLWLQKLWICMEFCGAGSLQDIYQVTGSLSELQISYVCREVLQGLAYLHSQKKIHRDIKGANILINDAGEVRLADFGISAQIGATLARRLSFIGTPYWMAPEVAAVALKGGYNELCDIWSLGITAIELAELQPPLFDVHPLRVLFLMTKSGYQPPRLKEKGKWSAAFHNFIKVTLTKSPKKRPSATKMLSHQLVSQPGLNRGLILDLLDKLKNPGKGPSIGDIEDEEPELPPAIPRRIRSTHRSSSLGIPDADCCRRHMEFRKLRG
In words: HPK1-SLP76 TR-FRET Assay. Type of assay: biochemical. The note with it: 75 pM HPK1, ATP 10 uM, SLP76 10 nM, 30 min pre-incubation, 60 min reaction. A general note: Time-resolved FRET reads energy transfer from a long-lived donor to a nearby acceptor.

One may read the IC50 as the point on the concentration scale where inhibition reaches its midpoint. Read a low IC50 as inhibition by little substance. In turn, `Cc1c(-c2c(F)c(N)c3cnc(Nc4ccc(CS(C)(=O)=O)cc4)nc3c2Cl)cnc2c1NCCO2` [Compound 2-92, (+ or −)-8-chloro-6-fluoro-7-(8-methyl-2,3-dihydro-1H-pyrido[2,3-b[1,4]oxazin-7-yl)-N~2~- {4-[(methylsulfonyl)methyl]phenyl}quinazoline-2,5-diamine] had an IC50 of 0.0399 nM.

`COc1cc2c(cc1Nc1ncc3ccc(-c4ccc(S(N)(=O)=O)cc4C)cc3n1)CNCC2` [Compound 1-32, 4-{2-[(6-methoxy-1,2,3,4-tetrahydroisoquinolin-7-yl)amino]quinazolin-7-yl}-3-methylbenzene-1-sulfonamide] showed an IC50 of 108 nM. With `COc1cc2c(cc1Nc1ncc3ccc(Nc4cc(C(N)=O)ccn4)cc3n1)CN(C)CC2` [Compound 3-41, 2-({2-[(6-methoxy-2-methyl-1,2,3,4-tetrahydroisoquinolin-7-yl)amino]quinazolin-7-yl}-amino)pyridine-4-carboxamide] the figure was 10 nM; with `COc1cc2c(cc1Nc1ncc3ccc(-c4ccc5c(c4)C(=O)N(CC4CC4)C5)cc3n1)CNCC2` [Compound 1-68, 2-(cyclopropylmethyl)-6-{2-[(6-methoxy-1,2,3,4-tetrahydroisoquinolin-7-yl)amino]quinazolin-7-yl}-2,3-dihydro-1H-isoindol-1-one], 161 nM. The same measure for `COc1cc2c(cc1Nc1ncc3ccc(-c4cnc5c(c4C)NCCO5)cc3n1)CN(C)CC2` [Compound 1-4, N-(6-methoxy-2-methyl-1,2,3,4-tetrahydroisoquinolin-7-yl)-7-(8-methyl-2,3-dihydro-1H-pyrido[2,3-b][1,4]oxazin-7-yl)quinazolin-2-amine]: 1.51 nM. The same measure for `COc1cc2c(cc1Nc1ncc3ccc(NC[C@@H]4CCC(=O)N4)cc3n1)CN(C)CC2` [Compound 3-45, (5S)-5-[({2-[(6-methoxy-2-meth-yl-1,2,3,4-tetrahydroisoquinolin-7-yl)amino]quinazolin-7-yl}-amino)methyl]pyrrolidin-2-one]: 292 nM; for `Cc1c(-c2cc3nc(Nc4ccc(CS(C)(=O)=O)cc4)ncc3cc2F)cnc2c1NCCO2` [Compound 1-115, 6-fluoro-7-(8-methyl-2,3-dihydro-1H-pyrido[2,3-b][1,4]oxazin-7-yl)-N-(4-[(methylsulfonyl)methyl]phe-nyl}quinazolin-2-amine]: 0.0508 nM. The compound `Cc1c(-c2cc3nc(Nc4ccc(C(C)S(C)(=O)=O)cc4)ncc3c(N)c2F)cnc2c1NCCO2` (single isomer, unassigned) [Compound 2-63, (R or S)-6-fluoro-7-(8-methyl-2,3-dihydro-1H-pyrido[2,3-b][1,4]oxazin-7-yl)-N˜2˜-{4-[1-(methylsulfonyl)ethyl]phenyl}quinazoline-2,5-diamine] gave an IC50 of 0.0861 nM. The same measure for `COc1cc2c(cc1Nc1ncc3ccc(OCC4CCNCC4)cc3n1)CN(C)CC2` [Compound 4-3, N-(6-methoxy-2-methyl-1,2,3,4-tetrahydroisoquin-olin-7-yl)-7-[(piperidin-4-yl)methoxy]quinazolin-2-amine]: 377 nM; for `CCS(=O)(=O)Cc1ccc(Nc2ncc3cc(F)c(-c4cnc5c(c4C)NCCO5)cc3n2)cc1` [Compound 1-134, N-{4-[(ethylsulfonyl)methyl]phe-nyl}-6-fluoro-7-(8-methyl-2,3-dihydro-1H-pyrido[2,3-b][1,4]oxazin-7-yl)quinazolin-2-amine]: 0.0425 nM. With `COc1cc2c(cc1Nc1ncc3ccc(NC4C5COCC54)cc3n1)CN(C)CC2` (stereo not shown) [Compound 3-74, N~2~-(6-methoxy-2-methyl-1,2,3,4-tetrahydroisoquinolin-7-yl)-N~7~-(3-oxabicyclo[3.1.0]-hexan-6-yl)quinazoline-2,7-diamine] the figure was 138 nM; with `COc1cc2c(cc1Nc1ncc3ccc(-c4cc(NC(C)=O)ccc4C)cc3n1)CNCC2` [Compound 1-85, N-(3-{2-[(6-methoxy-1,2,3,4-tetrahydroisoquinolin-7-yl)amino]quinazolin-7-yl}-4-methylphenyl)acetamide], 462 nM. With `Cc1c(-c2cc3nc(Nc4ccc5c(c4)CN(C)CC5)ncc3c(N)c2F)cnc2nc[nH]c12` [Compound 2-162, 6-fluoro-7-(7-methyl-1H-imidazo[4,5-b]pyridin-6-yl)-N~2~-(2-methyl-1,2,3,4-tetrahydroisoquinolin-7-yl)quinazoline-2,5-diamine] the figure was 0.126 nM. In turn, `Cc1c(-c2cc3nc(Nc4ccc5c(c4)CN(C)CC5(F)F)ncc3c(N)c2F)cnc2c1NCCO2` [Compound 2-154, N~2~-(4,4-difluoro-2-methyl-1,2,3,4-tetrahydroisoquinolin-7-yl)-6-fluoro-7-(8-methyl-2,3-dihydro-1H-pyrido[2,3-b][1,4]oxazin-7-yl)quinazoline-2,5-diamine] returned an IC50 of 0.515 nM.

Consider `COc1cc2c(cc1Nc1ncc3ccc(Nc4ccc5c(c4)N(C(C)=O)CC5)cc3n1)CN(C)CC2` [Compound 3-32, 1-[6-({2-[(6-methoxy-2-methyl-1,2,3,4-tetrahydroisoquinolin-7-yl)amino]quinazolin-7-yl}-amino)-2,3-dihydro-1H-indol-1-yl]ethan-1-one], for which the IC50 was 57.1 nM. Compound `COc1cc2c(cc1Nc1ncc3ccc(-c4ccc(F)cc4CN)cc3n1)CN(C)CC2` [Compound 1-8, 7-[2-(aminomethyl)-4-fluorophenyl]-N-(6-methoxy-2-methyl-1,2,3,4-tetrahydroisoquinolin-7-yl)quinazolin-2-amine] returned an IC50 of 403 nM.

Regarding `Cc1c(-c2cc3nc(Nc4ccc(CS(C)(=O)=O)c(F)c4)ncc3c(N)c2F)cnc2c1NCCO2` [Compound 2-114, 6-fluoro-N~2~-{3-fluoro-4-[(methanesulfonyl)methyl]phenyl}-7-(8-methyl-2,3-dihydro-1H-pyrido[2,3-b][1,4]oxazin-7-yl)quinazoline-2,5-diamine], the IC50 was 0.0654 nM. The compound `COc1cc2c(cc1Nc1ncc3ccc(-c4cncc(S(C)(=O)=O)c4)cc3n1)CNCC2` [Compound 1-43, N-(6-methoxy-1,2,3,4-tetrahydroisoquinolin-7-yl)-7-[5-(methylsulfonyl)pyridin-3-yl]quinazolin-2-amine] came in with an IC50 of 82.8 nM. The same measure for `COc1cc2c(cc1Nc1ncc3ccc(OCc4ccc5c(c4)CNC5)cc3n1)CN(C)CC2` [Compound 4-2, 7-[(2,3-dihydro-1H-iso-indol-5-yl)methoxy]-N-(6-methoxy-2-methyl-1,2,3,4-tetrahydroisoquinolin-7-yl)-quinazolin-2-amine]: 4.67 nM. With `Cc1c(-c2cc3nc(Nc4ccccc4OC(F)(F)F)ncc3c(N)c2F)cnc2c1NCCO2` [Compound 2-8, 6-fluoro-7-(8-methyl-2,3-dihydro-1H-pyrido[2,3-b][1,4]oxazin-7-yl)-N~2~- [2-(trifluoromethoxy)phenyl] quinazoline-2,5-diamine] the figure was 116 nM. With `COc1cc2c(cc1Nc1ncc3ccc(NC4(C(=O)N(C)C)CC4)cc3n1)CN(C)CC2` [Compound 3-66, 1-({2-[(6-methoxy-2-methyl-1,2,3,4-tetrahydroisoquinolin-7-yl)amino]quinazolin-7-yl}-amino)-N,N-dimethylcyclopro-pane-1-carboxamide] the figure was 294 nM; with `CN1CCc2ccc(Nc3ncc4c(N)c(F)c(-c5cnc6c(c5Cl)NCCO6)cc4n3)cc2C1` [Compound 2-124, 7-(8-chloro-2,3-dihydro-1H-pyrido[2,3-b][1,4]oxazin-7-yl)-6-fluoro-N~2~-(2-methyl-1,2,3,4-tetrahydroisoquinolin-7-yl)quinazoline-2,5-diamine], 0.0474 nM; with `COc1cc2c(cc1Nc1ncc3ccc(NC4CCN(C)C4=O)cc3n1)CN(C)CC2` (racemic) [Compound 3-56, (S and R)-3-({2-[(6-methoxy-2-methyl-1,2,3,4-tetrahydroiso-quinolin-7-yl)amino]quinazolin-7-yl}amino)-1-methylpyrrolidin-2-one], 97.6 nM. `COc1cc2c(cc1Nc1ncc3ccc(N4CC5(CCCNCC5)OC4=O)cc3n1)CN(C)CC2` (racemic) [Compound 3-8, (S and R)-3-{2-[(6-methoxy-2-methyl-1,2,3,4-tetrahydroiso-quinolin-7-yl)amino]quinazolin-7-yl}-1-oxa-3,8-diazaspiro[4.6]-undecan-2-one] showed an IC50 of 92.6 nM.

As to `COc1cc2c(cc1Nc1ncc3ccc(Nc4cc(CO)ccn4)cc3n1)CN(C)CC2` [Compound 3-40, [2-({2-[(6-methoxy-2-methyl-1,2,3,4-tetrahydroisoquinolin-7-yl)amino]quinazolin-7-yl}-amino)pyridin-4-yl]methanol], half-maximal inhibition (IC50) was put at 0.889 nM. With `Cc1c(-c2c(F)c(N)c3cnc(Nc4ccc5c(c4)CN(C)CC54CC4)nc3c2Cl)cnc2c1NCCO2` (single isomer, unassigned) [Compound 2-108, (+ or −)-8-chloro-6-fluoro-N2-(2′-methyl-2′,3′-dihydro-1′H-spiro[cyclopropane-1,4′-isoquinolin]-7′-yl)-7-(8-methyl-2,3-dihydro-1H-pyrido[2,3-b][1,4]oxazin-7-yl)quinazoline-2,5-diamine] the figure was 0.0134 nM; with `COc1cc2c(cc1Nc1ncc3c(N)c(F)c(-c4cnc5c(c4C)NCCO5)cc3n1)CN(C)CC2(C)C` [Compound 2-75, 6-fluoro-N~2~-(6-methoxy-2,4,4-trimethyl-1,2,3,4-tetrahydroisoquinolin-7-yl)-7-(8-methyl-2,3-dihydro-1H-pyrido[2,3-b][1,4]oxazin-7-yl)quinazoline-2,5-diamine], 0.325 nM. With `COc1cc2c(cc1Nc1ncc3ccc(-c4cnn(C(F)F)c4)cc3n1)CN(C)CC2` [Compound 1-26, 7-[1-(difluoromethyl)-1H-pyrazol-4-yl]-N-(6-methoxy-2-methyl-1,2,3,4-tetrahydroisoquinolin-7-yl)quinazolin-2-amine] the figure was 10.8 nM.
